We go through 15 molecules from patent US9193687B2 (priority 2007, dated 2015).

In data set [1] the test system is human mammary carcinoma MX-1 xenograft. Put plainly: Antitumor therapeutic effect against MX-1 xenograft in nude mice. The settings on record: i.v. injection; for Therapeutic effect: complete tumor remission (CR), mice with CR/total and day: treatment from Day 8, dose and schedule per compound as in Table 3 (30-150 mg/kg); for Maximal body-weight loss (%) / Therapeutic effect: tumor relapse: dose and schedule per compound as in Table 3. The data set is classed as in vivo. Here is the method: (§1) Athymic nude mice bearing the nu/nu gene were obtained from NCI, Frederick, Md. and used for all human tumor xenografts. Male nude mice 6 weeks or older weighing 20-24 g or more were used. Compounds were administered via the tail vein for i.v. injection or infusion as described previously.^64 A typical formulation for chemotherapeutic studies for each drug was dissolved in DSMO to make a 25 mg/ml fresh solution, 0.4 ml of this solution was mixed with 0.3 ml of Tween 80, plus 1.3 ml to make 2 ml of 5 mg/ml solution. Bolus injection volume was 0.1-0.2 ml per mouse. Tumor volume was assessed by measuring length×width×height (or width) by using a caliper. For tumor-bearing nude mice during the course of the experiment, the body weight refers to total weight minus the weight of the tumor. All animal studies were conducted in accordance with the guidelines for the National Institute of Health Guide for the Care and Use of Animals and the protocol approved by the Institutional Animal Care and Use Committee.
The therapeutic effects of a drug against human tumor xenografts in nude mice, under the optimal therapeutic conditions but without any lethality due to drug toxicity, the following degrees of therapeutic effects are defined and calculated by the following formula: […]
where • T0 is the initial tumor size (in mm^3) at beginning of drug treatment; • Tc is tumor size of untreated control group on a given date; and • Tx is tumor size of the drug treated group on a given date.
[formula] • Tumor disappearance (complete remission or CR) is defined by the effect where • [Tx=0] for a period of time (in days) for a proportion of animals (NCR/N), where • N is the total number of animals in the group, and NCR is the number of mice in the group that achieved CR. • Tumor relapse is quantitatively calculated by • [The Day tumor relapsed (Drelp)—The Day CR achieved (DCR)] (Eq. 3) for a proportion of animals (Nrelp/N) where N is the total number of animals in the group, and Nrelp is the number of the mice in the group that relapsed. • The log cell kill (LCK) of the tumor tissue after a given chemotherapy that reached CR is estimated by: LCK=log [2^(Tumor remission in days/Tumor doubling time in days)] (Eq. 4)
(§2) Athymic nude mice bearing the nu/nu gene were used for human breast tumor MX-1 xenograft (FIGS. 3 and 4) and human brain glioma U87 GM xenograft (FIG. 5). Nude mice were obtained from National Cancer Institute, Frederick, Md. Male mice 6 weeks old or older weighing 22 g or more were used for experiments with subcutaneous tumor inoculation as described previously.^67 Drug was administrated via the tail vein by iv injection. Tumor volumes were assessed by measuring length×width×height (or width) by using caliper. Vehicle used was 20 μL DMSO in 180 μL saline. All animal studies were conducted in accordance with the guidelines of the U.S. National Institutes of Health Guide for the Care and Use of Animals and the protocol approved by the Institutional Animal Care and Use Committee.

Data set [2] concerns biosynthesis of DNA, RNA and protein in MX-1 cells. Put plainly: Inhibition of biosynthesis of DNA, RNA and protein (tritiated tracer incorporation). Type of data set: cell-based, human. The settings on record: for inhibition at 10 µM: Homo sapiens, MX1, read-out: Protein synthesis inhibition.
Description: [^3H]Thymidine (1 uCi), [^3H]adenosine (1 μCi) and [^3H]leucine (2 μCi) were used as the tracers for incorporation into DNA, RNA and protein, respectively. […] Incubation was terminated at each time points as indicated.
In data set [3] the test system is CCRF-CEM human lymphoblastic leukemia cells. Put plainly: cells. The settings on record: read-out: Cytotoxicity IC50, CCRF-CEM.
The subject of data set [4] is Human colon carcinoma HCT-116 cells. Put plainly: cells.
In data set [5] the test system is Human mammary carcinoma (MX-1) tumor cells. Put plainly: In vitro cytotoxicity, SRB assay, 72-hr incubation. The settings on record: read-out: Cytotoxicity IC50, MX-1. On the technique in general: In SRB staining, fixed cells bind dye roughly in proportion to their protein.
Data set [6] has as its system CCRF-CEM/Taxol. Put plainly: In vitro cytotoxicity, XTT assay, taxol-resistant subline. The settings on record: read-out: Cytotoxicity IC50, CCRF-CEM/Taxol. A general note: Formazan colour is commonly taken as a measure of viable cells.
Data set [7] concerns human glioma U87 GM s.c. xenograft. Put plainly: Therapeutic effect against U87 glioma s.c. xenograft in nude mice. Type of data set: in vivo. Here is the method:
as §1
as §2, with “Committee. […]” for “Committee.”

The nature of data set [8]: Half-life in rat plasma.
The nature of data set [9]: Half-life in intravenous injection vehicle. The settings on record: intravenous injection vehicle (DMSO/Tween 80/saline).
The subject of data set [10] is CCRF-CEM human lymphoblastic leukemia cells. The settings on record: read-out: Cytotoxicity IC50, CCRF-CEM.
Data set [11] relates to Human colon carcinoma HCT-116 cells. The settings on record: read-out: Cytotoxicity IC50, HCT-116.
The test system of data set [12] is prostate cancer (PC3). Put plainly: cells. The settings on record: read-out: Cytotoxicity IC50, PC3.
The test system of data set [13] is lung cancer H460. Put plainly: cells.
Data set [14] concerns lung cancer H1299. Put plainly: cells.
Where [15] appears, read: HCT-116, 72 h, read-out: Cytotoxicity IC50, HCT-116.
Where [16] appears, read: Homo sapiens, NCI-H460, read-out: Cytotoxicity IC50, H460.
The mark [17] stands for this setting: Homo sapiens, NCI-H1299, read-out: Cytotoxicity IC50, H1299.
The mark [18] stands for this setting: HCT-116, read-out: Cytotoxicity IC50, HCT-116.

SMILES strings stand for the structures. “And” between values parts separate entries of the source, which are not always exact repeats. Equal entries are not always repeated. Structures can show the parent of a compound that is named as a salt. Where two headings read alike, the source gives them in different places.

In the case of `CN(C)CCC(=O)Nc1cccc(NC(=O)Nc2ccc(N(CCCl)CCCl)cc2)c1` (as salt: HCl) [BO-2091, N-(3-(3-(4-(bis(2-chloroethyl)amino)-phenyl)ureido)phenyl)-3-(dimethylamino)-propanamide], the melting point was in the range of 88 to 90 °C.

As to `CN(C)CC(=O)Nc1cccc(NC(=O)Nc2ccc(N(CCCl)CCCl)cc2)c1` (as salt: hydrochloride) [BO-2189, N-(3-(3-(4-(bis(2-chloroethyl)amino)phenyl)ureido)phenyl)-2-(dimethyl-amino)acetamide], the melting point fell in the range of 62 to 64 °C.

As for `Cc1cc(NC(=O)Nc2ccc(N(CCCl)CCCl)cc2)c2ccccc2n1` [BO-1038, 1-{4-[bis(2-chloroethyl)amino]phenyl}-3-(2-methylquinolin-4-yl)urea], the “Therapeutic effect: complete tumor remission (CR), mice with CR/total and day” value in data set [1] was “achieved complete tumor remission and 3/3 CR on D16, 16, 16”. The “Maximal body-weight loss (%)” value in [1] is given as 4%. Moreover, the “Therapeutic effect: tumor relapse” value in data set [1] is on record as “No relapse on D70”. Also, the inhibition at 10 µM in data set [2] lay in the range of 40 to 80%. Further, the IC50 was determined as 0.19 µM in data set [3] (72 h); 1.42 µM in data set [4] (setting [15]); 0.34 µM in data set [5] (Homo sapiens, 72 h); 0.43 µM in data set [6] (Homo sapiens, CCRF-CEM, 72 h).

Take `Cc1ccc(Nc2c3ccccc3nc3c(C)cccc23)cc1NC(=O)Nc1ccc(N(CCCl)CCCl)cc1` [BO-1051]: the “Therapeutic effect: complete tumor remission (CR), mice with CR/total and day” value in data set [1] is “achieved complete tumor remission and 3/3 CR on D16, 16, 18”. Moreover, the “Maximal body-weight loss (%)” value in data set [1] is 11%. Further, the “Therapeutic effect: tumor relapse” value in [1] was “No relapse on D70”. In addition, the “Tumor size as % of original tumor size” value in data set [7] (100 mg/kg, Q2D×5, n=3, one cycle, 10 and 12 days after last dose) is reported as 18%. Further, the Tumor-growth suppression result in data set [7] (BO-1049 150 mg/kg, BO-1051 100 mg/kg, BO-1055 30 mg/kg, Q2D×5, i.v.-injection) is reported as “complete tumor-growth suppression”. In addition, the “Therapeutic effect compared with cyclophosphamide (80 mg/kg, Q2D×5)” value in data set [7] (parallel study) is “superior therapeutic effects than cyclophosphamide”. The “Delay in reaching maximal effect on DNA and RNA biosynthesis” value in data set [2] (10 μM) is reported as “about 1 hr”. In addition, in data set [2], the inhibition at 10 µM was below 20%. Moreover, the IC50 was found to be 0.08 µM in data set [3] (72 h); 0.44 µM in data set [4] (setting [15]); 0.09 µM in data set [6] (Homo sapiens, CCRF-CEM, 72 h). For the same molecule, the values for the half-life in [8] and in data set [9] were 2.25 days and around 45 days, respectively.

In the case of `Cc1ccc(Nc2c3ccccc3nc3ccccc23)cc1NC(=O)Nc1ccc(N(CCCl)CCCl)cc1` [BO-1150], the IC50 in data set [10] (Table 1, XTT, 72-hr incubation) was found to be 0.02 µM; in [11] (Table 1, SRB, 72-hr incubation), 0.26 µM; in [5] (Table 1, SRB, 72-hr incubation), 0.58 µM; in [6] (Table 1, XTT, 72-hr incubation), 0.03 µM.

With `CC(C)COC(=O)Nc1cc(COC(=O)Nc2ccc(N(CCCl)CCCl)cc2)cc(Nc2c3ccccc3nc3ccccc23)c1` [BO-1244], the IC50 worked out at 0.19 µM in data set [10] (Table 1, XTT, 72-hr incubation); 0.3 µM in [11] (Table 1, SRB, 72-hr incubation); 1.13 µM in data set [5] (Table 1, SRB, 72-hr incubation); 0.65 µM in [6] (Table 1, XTT, 72-hr incubation).

As to `Cc1cccc2c(Nc3cc(COC(=O)Nc4ccc(N(CCCl)CCCl)cc4)cc(NC(=O)OCC(C)C)c3)c3ccccc3nc12` [BO-1245], the IC50 in data set [11] (Table 1, SRB, 72-hr incubation) worked out at 2.4 µM; in [5] (Table 1, SRB, 72-hr incubation), 5.97 µM; in data set [6] (Table 1, XTT, 72-hr incubation), 3.36 µM.

`O=C(CN1CCCC1)Nc1cccc(NC(=O)Nc2ccc(N(CCCl)CCCl)cc2)c1` [BO-2151, N-(3-(3-(4-(bis(2-chloroethyl)amino)phenyl)ureido)-phenyl)-2-(pyrrolidin-1-yl)acetamide]: the IC50 in data set [12] (Homo sapiens) came to 12.8 µM; in data set [13] (setting [16]), 6.55 µM; in [14] (setting [17]), 9.36 µM; in [3] it was 3.41 µM; in [4] (setting [18]), 5.41 µM.

Consider `O=C(CN1CCOCC1)Nc1cccc(NC(=O)Nc2ccc(N(CCCl)CCCl)cc2)c1` [BO-2182], for which the IC50 is 35.8 µM in [12] (Homo sapiens); 19.5 µM in data set [13] (setting [16]); 26.4 µM in data set [14] (setting [17]); 3.87 µM in [3]; 13 µM in data set [4] (setting [18]).

As for `CCN(CC)CC(=O)Nc1cccc(NC(=O)Nc2ccc(N(CCCl)CCCl)cc2)c1` [BO-2183], the IC50 is 13 µM in [12] (Homo sapiens); 5.67 µM in data set [13] (setting [16]); 11.7 µM in data set [14] (setting [17]); 2.01 µM in [3]; 4.62 µM in [4] (setting [18]).

As for `O=C(CN1CCCCC1)Nc1cccc(NC(=O)Nc2ccc(N(CCCl)CCCl)cc2)c1` [BO-2184], the IC50 worked out at 10.1 µM in data set [12] (Homo sapiens); 5.62 µM in data set [13] (setting [16]); 8.55 µM in data set [14] (setting [17]); 1.35 µM in data set [3]; 7.5 µM in [4] (setting [18]).

With `O=C(CN1CCC(N2CCCCC2)CC1)Nc1cccc(NC(=O)Nc2ccc(N(CCCl)CCCl)cc2)c1` [BO-2188], the IC50 was 25.9 µM in [12] (Homo sapiens); 12.3 µM in [13] (setting [16]); 12.8 µM in data set [14] (setting [17]); 30.4 µM in [3]; 6.15 µM in data set [4] (setting [18]).

As for `CN(C)CC(=O)Nc1cccc(NC(=O)Nc2ccc(N(CCCl)CCCl)cc2)c1` [BO-2189, N-(3-(3-(4-(bis(2-chloroethyl)amino)phenyl)ureido)phenyl)-2-(dimethyl-amino)acetamide], the IC50 in [12] (Homo sapiens) is 19 µM; in data set [13] (setting [16]), 8.74 µM; in data set [14] (setting [17]), 10.6 µM; in data set [3], 0.78 µM; in [4] (setting [18]), 9.56 µM.

For `O=C(CCN1CCC(N2CCCCC2)CC1)Nc1cccc(NC(=O)Nc2ccc(N(CCCl)CCCl)cc2)c1` [BO-2191, 3-([1,4′-bipiperidin]-1′-yl)-N-(3-(3-(4-(bis(2-chloroethyl)amino)phenyl)ureido)phenyl)propanamide hydrochloride], the IC50 amounted to 22.1 µM in data set [12] (Homo sapiens); 14.2 µM in [13] (setting [16]); 11 µM in data set [14] (setting [17]); 1.63 µM in [3]; 15.7 µM in data set [4] (setting [18]).

`N.N.[Cl][Pt][Cl]` [Cisplatin, reference compound]: the IC50 in data set [12] (Table 2) was found to be 9.96 µM; in data set [13] (read-out: Cytotoxicity IC50, H460, Table 2) it was 18.4 µM; in data set [14] (read-out: Cytotoxicity IC50, H1299, Table 2), 13.6 µM; in data set [10] (Table 2) it was 3.54 µM; in data set [11] (Table 2), 12.7 µM.

For orientation: melting point means the temperature, or range, at which the solid turns liquid. Usually inhibition stands for the drop in the measured response relative to a control, in per cent. The half-life is the time in which the quantity being followed falls by half.
